Entries after “also recorded” stand apart in the source; their conditions may differ.
Key:
Assay type in all cases: cell-based, rat
PC12 cells [1] = assay: Neural outgrowth of PC12 cells after consecutive seven-day incubation (Example 15, FIG. 3); details: PC12 cells incubated for consecutive 7 days; CGs at 0.5 μM
Experimental: (§1) The immortal PC12 cell line is one of the most investigated systems in neuronal differentiation. In the presence of nerve growth factor these cells differentiate to neuronal cells. PC12 cells originated from rat pheochromocytoma were grown as monolayers in Eagle's medium (EM) supplemented with 10% fetal calf serum, 50 μg/ml gentamicin and 5 mM glutamine, in a humidified incubator buffered with 5% CO2, at 37° C. The culture medium is changed every four days and the cells are passaged every eight days and performed confluent monolayers (1.5×10^6 in a 10 cm plate or 10^5 cells per well in 24 wells plate). PC12 cells are originally round cells which, following several days in the presence of nerve growth factor (NGF) process nerves. Upon withdrawal of the NGF, the nerves retract and a process of apoptosis is initiated in the cells.
The cells were incubated with the various factors for a consecutive period of seven days. Neural outgrowth was monitored and microscopic photographs were taken following the seven day incubation with the above factors.

PC12 cells [2] = assay: Neuronal outgrowth of PC12 cells, factors in growth medium for 48 hours (Example 12, FIG. 1); details: 48 hours in growth medium with factor, 1,3 cGP 1 μM, NGF 50 ng/ml, α glycerophosphate as control
Experimental: as §1
PC12 cells were grown in culture as explained above, the cells were divided into three groups and different factors were added to the growth medium of each group for 48 hours as follows: • Group A—α glycerophosphate. • Group B—nerve growth factor (NGF) at a concentration of 50 ng/ml. • Group C —1,3 cGP at a concentration of 1 μM.
The rate of neuronal growth in each of the above cultures was monitored and documented by microscopic photographs.

PC12 cells [3] = assay: Neural outgrowth of PC12 cells after three-hour pulse and wash, photographed on day 7 (Example 14, FIG. 2); details: for promotion of neuronal outgrowth (summary statement): PC12 adrenal tumorigenic cells in culture, after a short incubation period; for neural outgrowth (microscopic photographs): PC12 cells pulsed for three hours, washed, grown in growth medium without factor, day 7 after treatment
Experimental: as §1
Cells were grown as described above and divided into groups which were each grown with one of the following:
The above factors were added to the cells for a period of three hours after which they were washed away from the cells. […] The neural outgrowth of the cells was monitored and microscopic photographs were taken on day seven after treatment with the above factors.

PC12 cells [4] = assay: Nerve rescue of NGF-differentiated PC12 cells after NGF withdrawal, 14-day culture (Example 19, FIG. 4)
Experimental: as §1
To study nerve rescue by 1,3 cPP, PC12 cells were incubated in tissue culture medium for a period of 14 days. Within this period, the cells were either grown in the presence of nerve growth factor (NGF) for different periods of times or were grown in the presence of 1,3, cPP for various periods of time. Neuronal differentiation and spread was examined in the various cells.

Row | Molecule | neural outgrowth (microscopic photographs) (PC12 cells [1]) | neural outgrowth (microscopic photographs) (PC12 cells [2]) | promotion of neuronal outgrowth (summary statement) (PC12 cells [3]) | neural outgrowth (microscopic photographs) (PC12 cells [3]) | neural outgrowth (microscopic photographs) (PC12 cells [2]; listed as 1,3 GP) | rescue of the neuronal network from retraction (PC12 cells [4]; PC12 cells 7 days with NGF 50 ng/ml, then 7 days with 2 μM, 4 μM or 6 μM 1,3 cPP) | nerve retraction after NGF withdrawal (PC12 cells [4]; PC12 cells 7 days with NGF 50 ng/ml, then 7 days without NGF) | neuronal differentiation (PC12 cells [4]; PC12 cells grown with NGF 50 ng/ml for full 14 days)
1 | O=P(O)(O)OCC(O)CO (stereo in doubt) [αGP, L-α-glycerophosphate, reference compound] | No neural outgrowth was observed | did not promote neural outgrowth |  |  |  |  |  | 
2 | O=P1(O)OCC(CO)O1 (centres unmarked) [1,2 cGP, 1,2 cyclic glycerophosphate] | neural outgrowth is observed to different extents |  | capable of promoting neuronal outgrowth | Neural outgrowth is seen |  |  |  | 
3 | phenyl 1,3 cyclic propanediol phosphate [phenyl-1,3 cPP] | neural outgrowth is observed to different extents |  |  | Neural outgrowth is seen |  |  |  | 
4 | phenyl 1,3 cyclic glycerophosphate [phenyl-1,3 cGP] | neural outgrowth is observed to different extents |  |  | Neural outgrowth is seen |  |  |  | 
5 | O=P1(O)OCC(O)CO1 (centres unmarked) [1,3 cGP, 1,3 cyclic glycerophosphate] | neural outgrowth is observed to different extents | neural outgrowth was clearly seen | capable of promoting neuronal outgrowth | Neural outgrowth is seen | Neuronal outgrowth is clearly seen |  |  | 
6 | O=P1(O)OCCCO1 [1,3 cPP, 1,3 cyclic propanediol phosphate] | neural outgrowth is observed to different extents |  |  | Neural outgrowth is seen |  | partial to full rescue of the neuronal network |  | 
7 | O=P(O)(O)OC(CO)CO [βGP, β-Glycerophosphate, reference compound] | No neural outgrowth was observed |  |  |  |  |  |  | 
8 | NGF: nerve growth factor, a growth factor that differentiates PC12 cells to neuronal cells (protein, UniProt P01139 122-241, looked up) Beta-nerve growth factor: SSTHPVFHMGEFSVCDSVSVWVGDKTTATDIKGKEVTVLAEVNINNSVFRQYFFETKCRASNPVESGCRGIDSKHWNSYCTTTHTFVKALTTDEKQAAWRFIRIDTACVCVLSRKATRRG | neural outgrowth was seen; also recorded: extensive neural outgrowth is seen | neural outgrowth was clearly seen; also recorded: Neuronal outgrowth is clearly seen |  | did not promote any nerve generation |  |  | complete nerve retraction was observed | full neuronal differentiation

From patent US6914056B1, “Pharmaceutical compositions comprising cyclic glycerophosphates and analogs thereof for promoting neural cell differentiation” (Yeda Research and Development Co., Ltd., priority 1999, dated 2005)
